Patent US12145930B1, “4-thiazolidinone derivatives as EGFR inhibitors for anti-tumor activity” (KING FAISAL UNIVERSITY, priority 2024, dated 2024)
Entries after “also recorded” stand apart in the source; their conditions may differ.

Tests used:
[1] = molecular target: EGFR (Homo sapiens, UniProt P00533); experiment: EGFR inhibition assay (Alpha Screen system); format: biochemical; conditions: Gefitinib as standard
[2] = tested on: MCF7 (breast) carcinoma cell line; experiment: antiproliferative growth assay, MCF7; format: cell-based, human
[3] = tested on: HCT-116 (colon) carcinoma cell line; experiment: antiproliferative growth assay, HCT-116; format: cell-based, human; conditions: for IC50: HCT116 colon carcinoma cells; for potency against colon cancer relative to the standard reference (5-fluorouracil): HCT-116, compared with 5-fluorouracil
[4] = tested on: PC3 (prostate) carcinoma cell line; experiment: antiproliferative growth assay, PC3; format: cell-based, human; conditions: PC3 prostate carcinoma cells
From the text: It is noteworthy that most of these compounds belong to the thiazolidine library.

[5] = tested on: MCF7 cells; experiment: cell cycle analysis by flow cytometry; format: cell-based, human; conditions: 24 hours
From the text: Typical neoplastic cells evade apoptosis since accumulation of mutations block apoptosis pathways. It was confirmed that the induction of apoptosis upon effective cancer treatment. It is an important regulatory mechanism in cell growth, maturation and death and is associated with a variety of human diseases, including tumors. Chemotherapy agents may lead to an autophagic response, which is one possible method of inducing apoptosis. There is a unique association between autophagy and apoptosis. While chemotherapeutic drugs induce autophagy, cell cycle arrest and cell senescence, it is imperative the induction of apoptosis and permanent removal of neoplastic cells for effective cancer treatment. Studies on the effect of compound 10 on cell cycle development and induction of apoptosis in cancer MCF7 cells was carried out. […] The cells were analyzed by flow cytometry technique.

[6] = tested on: MCF7 cells; experiment: apoptosis assay, Annexin V/PI; format: cell-based, human; conditions: 24 h
From the text: It has been detected that the early and late apoptosis produced by the examined compound 10 certainly indicated its capability to induce significant levels of apoptosis with necrosis percent 3.14.

[7] = Homo sapiens, MCF7, MCF7 breast carcinoma cells

Compound | IC50 [2, 7] | IC50 ([3]; Homo sapiens, HCT-116) | IC50 ([4]; Homo sapiens) | also measured
4-(5-(((1H-1,2,4-triazol-3-yl)amino) methylene)-3-benzoyl-4-oxothiazolidin-2-ylidene)amino)benzoic acid [Compound 11] | – | – | – | IC50 [1]: 0.0739 ± 0.0016 µM
4-((3-benzoyl-5-(5-((4-chlorophenyl)diazenyl)-2-hydroxybenzylidene)-4-oxothiazolidin-2-ylidene)amino)benzoic acid [Compound 9c] | – | – | – | IC50 ([2]; MCF7 breast carcinoma cells): 38 µM; IC50 [3]: 19.6 µM; potency against colon cancer relative to the standard reference (5-fluorouracil) [3]: higher potency against colon cancer relative to the standard reference; IC50 [4]: > 100 µM; IC50 [1]: 0.168 ± 0.0036 µM
4-((3-benzoyl-5-((dimethylamino)methylene)-4-oxothiazolidin-2-ylidene)amino) benzoic acid [Compound 10] | – | – | – | IC50 [1]: 0.0674 µM
O=C(O)c1ccc(/N=C2\SCC(=O)N2C(=O)c2ccccc2)cc1 [Compound 4, 4-((3-benzoyl-4-oxothiazolidin-2-ylidene)amino)benzoic acid] | > 100 µM | > 100 µM | > 100 µM | –
O=C(O)c1ccc(/N=C2\S/C(=C/c3ccccc3)C(=O)N2C(=O)c2ccccc2)cc1 [Compound 6a, 4-((3-benzoyl-5-(benzylidene)-4-oxothiazolidin-2-ylidene)amino)benzoic acid] | > 100 µM | > 100 µM | > 100 µM | –
O=C(O)c1ccc(/N=C2\S/C(=C/c3ccc(O)cc3)C(=O)N2C(=O)c2ccccc2)cc1 [Compound 6b, 4-((3-benzoyl-5-(4-hydroxybenzylidene)-4-oxothiazolidin-2-ylidene)amino)benzoic acid] | > 100 µM | > 100 µM | > 100 µM | –
O=C(O)c1ccc(/N=C2\S/C(=C/c3ccc(O)cc3O)C(=O)N2C(=O)c2ccccc2)cc1 [Compound 6c, 4-((3-benzoyl-5-(2,4-dihydroxybenzylidene)-4-oxothiazolidin-2-ylidene)amino) benzoic acid] | > 100 µM | > 100 µM | > 100 µM | –
COc1ccc(/C=C2/S/C(=N\c3ccc(C(=O)O)cc3)N(C(=O)c3ccccc3)C2=O)cc1 [Compound 6d, 4((3-benzoyl-5-(4-methoxybenzylidene)-4-oxothiazolidin-2-ylidene)amino) benzoic acid] | – | 12.4 µM | > 100 µM | IC50 ([2]; MCF7 breast carcinoma cells): 34.4 µM; potency against colon cancer relative to the standard reference (5-fluorouracil) [3]: higher potency against colon cancer relative to the standard reference; IC50 [1]: 0.134 ± 0.0029 µM
COc1cc(/C=C2/S/C(=N\c3ccc(C(=O)O)cc3)N(C(=O)c3ccccc3)C2=O)cc(OC)c1 [Compound 6e, 4-((3-benzoyl-5-(3,5-dimethoxybenzylidene)-4-oxothiazolidin-2-ylidene)amino) benzoic acid] | > 100 µM | > 100 µM | > 100 µM | –
O=C(O)c1ccc(/N=C2\S/C(=C/c3ccc4ccccc4c3)C(=O)N2C(=O)c2ccccc2)cc1 [Compound 6g, 4-((3-benzoyl-5-(naphthalen-2-ylmethylene)-4-oxothiazolidin-2-ylidene)amino) benzoic acid] | > 100 µM | > 100 µM | > 100 µM | –
O=C(O)c1ccc(/N=C2\S/C(=C/c3c[nH]c4ccccc34)C(=O)N2C(=O)c2ccccc2)cc1 [Compound 6h, 4-((5-((1H-indol-3-yl)methylene)-3-benzoyl-4-oxothiazolidin-2-ylidene)amino) benzoic acid] | > 100 µM | > 100 µM | > 100 µM | –
CN(C)c1ccc(/C=C2/S/C(=N\c3ccc(C(=O)O)cc3)N(C(=O)c3ccccc3)C2=O)cc1 [Compound 6i, 4-((3-benzoyl-5-(4-(dimethylamino)benzylidene)-4-oxothiazolidin-2-ylidene)amino) benzoic acid] | > 100 µM | > 100 µM | > 100 µM | –
O=C(O)c1ccc(/N=C2\S/C(=C/c3cc(/N=N/c4ccccc4)ccc3O)C(=O)N2C(=O)c2ccccc2)cc1 [Compound 9a, 4-((3-benzoyl-5-(2-hydroxy-5-((E)-phenyldiazenyl)benzylidene)-4-oxothiazolidin-2-ylidene)amino) benzoic acid] | > 100 µM | > 100 µM | > 100 µM | –
COc1ccc(/N=N/c2ccc(O)c(/C=C3/S/C(=N\c4ccc(C(=O)O)cc4)N(C(=O)c4ccccc4)C3=O)c2)cc1 [Compound 9b, 4-((3-benzoyl-5-(2-hydroxy-5-((4-methoxyphenyl)diazenyl)benzylidene)-4-oxothiazolidin-2-ylidene)amino)benzoic acid] | > 100 µM | > 100 µM | > 100 µM | –
CN(C)/C=C1\S/C(=N\c2ccc(C(=O)O)cc2)N(C(=O)c2ccccc2)C1=O [Compound 10, 4-((3-benzoyl-5-((dimethylamino)methylene)-4-oxothiazolidin-2-ylidene)amino) benzoic acid] | 17.4 µM | 12.2 µM | 67.4 µM | potency against colon cancer relative to the standard reference (5-fluorouracil) [3]: higher potency against colon cancer relative to the standard reference; Comment (cell cycle result) [5]: cell cycle arrest at G1/S phase; also recorded: PreGlapoptosis&Cell; % G0-G1 ([5]; at IC50 concentration 12.17 μM): 38.71%; % G2/M ([5]; at IC50 concentration 12.17 μM): 28.85%; % Pre-G1 ([5]; at IC50 concentration 12.17 μM): 26.15%; % S ([5]; at IC50 concentration 12.17 μM): 32.44%; Apoptosis Early [6]: 6.41%; Apoptosis Late [6]: 16.6%; Necrosis [6]: 3.14%
O=C(O)c1ccc(/N=C2\S/C(=C/Nc3nc[nH]n3)C(=O)N2C(=O)c2ccccc2)cc1 [Compound 11] | 11.7 µM | 7.17 µM | 98.5 µM | potency against colon cancer relative to the standard reference (5-fluorouracil) [3]: higher potency against colon cancer relative to the standard reference; Apoptosis Early [6]: 6.41%; Apoptosis Late [6]: 16.6%; Apoptosis Total [6]: 26.15%; Necrosis [6]: 3.14%
